Entries after “also recorded” stand apart in the source; their conditions may differ.
What was measured:
PKC = PKC inhibitor on TRPV1 sensitization in DRG neurons (calcium imaging); assay type: cell-based, mice; conditions: GF109203X 1 μM 45 mins, 9-HODE 200 nM
Protocol: (§1) DRG primary cultures were prepared as described previously (Brenneis et al., 2011 b). Briefly, twenty to thirty murine dorsal roots ganglia (DRGs) were dissected from spinal segments and transferred directly into ice-cold Hanks' balanced salt solution with CaCI2 and MgCI2 (lnvitrogen, Carlsbad, Calif., USA). The DRGs were than incubated with Neurobasal Medium (lnvitrogen, Carlsbad, Calif., USA) containing 500 U/ml collagenase (Sigma, Deisenhofen, Germany) and 2.5 U/ml dispase II (Roche, Mannheim, Germany) for 75 mins at 37° C. […]
(§2) Calcium-imaging experiments were performed with a Leica calcium-imaging setup, consisting of a Leica DMI 4000 b inverted microscope equipped with a DFC360 FX (CCD) camera, Fura-2 filters, and an N-Plan 10×/0.25 Ph1 objective (all from Leica), was used. […] For each experiment, an area with large cell numbers 24 h after preparation (see DRG primary cultures) was chosen and 40-110 cells were monitored simultaneously. […]
(§3) TRPV1 sensitization can be mediated by PKA or PKC (Schnizler et al., 2008; Bhave et al., 2003). To investigate the signaling pathway between G2A and TRPV1 in DRG neurons, we determined which protein kinases are involved in sensitization of TRPV1. […]

TRPV1 = assay: Calcium imaging of DRG neurons: TRPV1 sensitization (two capsaicin stimuli, Δratio); assay type: cell-based, mice
Protocol: DRG primary cultures were prepared as described previously (Brenneis et al., 2011 b). Briefly, twenty to thirty murine dorsal roots ganglia (DRGs) were dissected from spinal segments and transferred directly into ice-cold Hanks' balanced salt solution with CaCI2 and MgCI2 (lnvitrogen, Carlsbad, Calif., USA). The DRGs were than incubated with Neurobasal Medium (lnvitrogen, Carlsbad, Calif., USA) containing 500 U/ml collagenase (Sigma, Deisenhofen, Germany) and 2.5 U/ml dispase II (Roche, Mannheim, Germany) for 75 mins at 37° C. After removal of the collagenase/dispase-solution cells were washed three times with medium containing 10% FCS, penicillin/streptomycin/gentamycin (lnvitrogen, Carlsbad, Calif., USA) and incubated in 0.05% trypsin for 10 min at 37° C. After two washing steps, the cells were mechanically dissociated with a 1 ml pipette and plated on Poly-L-lysine (Sigma) coated coverslips. After incubation at 37° C. for 2 h, Neurobasal Medium containing glutamine (2 mm), penicillin (100 U/ml), streptomycin (100 μg/ml), B-27 and gentamicin (50 μg/ml) was added to the cells and incubated overnight. The neurons were used for Calcium imaging the next day.
Calcium-imaging experiments were performed with a Leica calcium-imaging setup, consisting of a Leica DMI 4000 b inverted microscope equipped with a DFC360 FX (CCD) camera, Fura-2 filters, and an N-Plan 10×/0.25 Ph1 objective (all from Leica), was used. Images were taken every 2 s and were processed with the LAS AF-software (Leica). For each experiment, an area with large cell numbers 24 h after preparation (see DRG primary cultures) was chosen and 40-110 cells were monitored simultaneously. Cells were loaded with 5 μM fura-2-AM-ester (Biotium), incubated for 45-60 min at 37° C. and washed with ringer solution (145 mM NaCI, 1.25 mM CaCl2, 1 mM MgCl2, 5 mM KCI, 10 mM D-glucose, and 10 mM HEPES, adjusted to pH 7.3). Baseline measurements were performed with ringer solution at a flow rate of 1-2 ml/min at room temperature. For the activation of TRPV1 we used a solution of 200 nM capsaicin (Sigma), for TRPA1 activation 50 μM allyl isothiocyanate (AITC, Fluka Analytic) and for TRPM8 100 μM L-menthol (Sigma) dissolved in ringer solution. For TRP-channel sensitization, cells were incubated for 2 mins with different concentrations (50 nM-1000 nM) of (±) 9-HODE (Cayman) or (±) 13-HODE (Cayman) before the second stimulus took place. For control stimulations, the corresponding volume of DMSO (Sigma) was mixed in ringer solution and applied with the same flow rate. 10 μM of the PKA inhibitor H89 (Tocris) or 1 μM of the PKC inhibitor GF1 09203X (Tocris) was co-incubated with fura-2 for 45 mins. As positive control for PKA activation 40 iJM 8-bromo-cAMP (Cayman) and for PKC activation 500 nM bradykinin (Cayman) was used. At the end of each measurement, 50 mM KCl was applied to identify neurons.

PKA = PKA inhibitor on TRPV1 sensitization in DRG neurons (calcium imaging); assay type: cell-based, mice; conditions: H89 10 μM 45 mins
Protocol: as §1, §2, §3

C57BL/6N mice = assay: Mechanical pain thresholds of mice after oxaliplatin (dynamic plantar aesthesiometer); assay type: in vivo; conditions: oxaliplatin 3 mg/kg i.p.
From the text: In all behavioral tests the experimenter was unaware of the treatment and the genotype of the mice. For all behavioral experiments we used only 6-12 weeks old C57BU6N mice purchased from commercial breeding companies (Charles River, Sulzfeld, Germany, Janvier, Le Geneset-Saint-lsle, FR). G2A and TRPV1 knockout strains were from Jackson laboratories. All experiments followed the ethics guidelines for investigations in conscious animals and the procedures were approved by the local Ethics Committee. […]
To determine the mechanical thresholds of mice, a Dynamic Plantar Aesthesiometer (Ugo Basile, Comerio, Italy) was used. […] Therefore, a steel rod pushed against the plantar side of the hind paw with linear ascending force (0-5 g over 10 s, in 0.5 g/s intervals) until a fast withdraw of the paw was observed The time between the first contact of the steel rod and the paw withdraw was measured in seconds (paw withdraw latency) and a cut-off time of 20 s was set.
To investigate whether or not alterations in concentrations of oxidized lipids occur during oxaliplatin-induced neuropathic pain, 3 mg/kg oxaliplatin (Nassini et al., 2011) was injected i.p. in C57BL/6N mice and the paw withdrawal latency over 10 days was monitored using a dynamic plantar aesthesiometer. […]

patients = conditions: cited from earlier work
DRGs = assay: Real-time RT-PCR of DRGs of oxaliplatin treated mice; assay type: in vivo; conditions: lumbal DRGs, day 10 after oxaliplatin treatment
Protocol: Lumbar DRGs (L2-L6) were dissected, quick-frozen in liquid nitrogen and stored at −80° C. Total RNA of the DRGs was isolated under RNase-free conditions using a mirVana miRNA Isolation Kit (Ambion) according to the manufacturer's instructions and quantified with a NanoDrop ND-1000 spectrophotometer (NanoDrop Technologies). The cDNA was synthesized from 200 ng RNA using a First Strand cDNA Synthesis Kit (Thermo Scientific) according to the manufacturer's instructions. Real-time RT-PCR was performed using an ABI Prism 7500 Sequence Detection System (Applied Biosystems) using Maxima SYBR Green qPCR Master Mix ROX as well as suitable primers for CYP2C37 (Luo et al., 1998), CYP2C38 (Zhang et al., 2003), CYP2C39 (Luo et al., 1998), CYP2J6 (Choudhary et al., 2003) and CYP3A11 (Chavan et al., 2015).
For analysis of GAPDH (Mm99999915_g1), G2A (Mm02620285_s1), 5-LOX (Mm01182747 m1), 12-LOX (Mm00545833_m1), 15-LOX (Mm00507789_m1) and COX-2 (Mm03294838_g1) assay primer from ThermoFisher Scientific were used. Reactions (total volume 10 μl) were performed in triplicate by incubating at 95° C. for 10 min, followed by 40 cycles of 15 s at 95° C. and 1 min at 60° C. […] Relative expression of target gene levels was determined using the ΔΔCt method, with Ct indicating the cycle number at which the signal of the PCR product crosses a defined threshold set within the exponential phase of the PCR. […]

With CN(C)CCCn1cc(C2=C(c3c[nH]c4ccccc34)C(=O)NC2=O)c2ccccc21 [GF109203X] as the compound, how does the “effect on 9-HODE-induced TRPV1 sensitization” value (PKC) read?
The value was “supresses the 9-HODE-dependent sensitization of TRPV1; also recorded: prevented TRPV1 sensitization”.

Which “sensitization of TRPV1 (Δratio of first and second capsaicin stimulus)” value (TRPV1; DRG neurons, lipid incubated 2 minutes before second capsaicin stimulus, 0 to 1000 nM) does the source give for CCCCCC(O)/C=C/C=C\CCCCCCCC(=O)O (stereo not drawn) [13-HODE] here?
Its value is “no strong sensitizing effect”.

And the “calcium flux of second vs first capsaicin stimulus (Δratio)” value (TRPV1; wildtype DRG neurons, lipid 200 nM 120 s, capsaicin 200 nM 30 s)?
The value was “does not increase the Δratio”.

With O=S(=O)(NCCNC/C=C/c1ccc(Br)cc1)c1cccc2cnccc12 [H89] as the compound, how does the “effect on PKA-dependent TRPV1 sensitization caused by 8-bromo-cAMP” value (PKA; 8-bromo-cAMP 40 μM) read?
Its value is “inhibited”.

And the “effect on 9-HODE-induced TRPV1 sensitization” value (PKA; 9-HODE 200 nM)?
Its value is “not influenced; also recorded: failed to supress”.

Which “start of reduced mechanical paw withdrawal latencies” value (C57BL/6N mice) does the source give for O=C1[O][Pt]2([NH][C@@H]3CCCC[C@H]3[NH]2)[O]C1=O [oxaliplatin] here?
Its value is 4 days.

What about the “mechanical paw withdrawal latencies” value (C57BL/6N mice; C57BL/6N mice, monitored over 10 days) of the same compound?
The value was “significantly reduced mechanical paw withdrawal latencies”.

What about the “patients in whom CIPN is induced” value (patients) of the same compound?
The value was “up to 80%”.

What about the “mRNA expression of CYP2J6, 5-LOX, 12-LOX, 15-LOX and COX-2” value (DRGs) of the same compound?
The value was “No difference in mRNA expression”.
